# Counter-ions that a name gives are not always drawn.
# Target: T1, MPO (purified from human polynuclear leukocytes) (Homo sapiens, UniProt P05164)
# T1 construct: purified from human polynuclear leukocytes; purchased Calbiochem/EMD Biosciences; host or cells: human polynuclear leukocytes (natural source)
# Experiment: MPO Amplex Red Activity Assay
# Type: biochemical
# Conditions: Table 1, 2 μM H2O2, pH 7.4
# Outline: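 Potency is given as kinact/KI: kobs values from 600 s progress curves, minus the uninhibited rate, are fit against inhibitor concentration. Reactions use 2 μM H2O2, 30 μM Amplex Red, pH 7.4 phosphate buffer with NaCl, DTPA and 2% DMSO, started with […] human MPO. Readout is resorufin fluorescence, catalase background subtracted.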
# T1 sequence (P05164 279-745 limits assumed): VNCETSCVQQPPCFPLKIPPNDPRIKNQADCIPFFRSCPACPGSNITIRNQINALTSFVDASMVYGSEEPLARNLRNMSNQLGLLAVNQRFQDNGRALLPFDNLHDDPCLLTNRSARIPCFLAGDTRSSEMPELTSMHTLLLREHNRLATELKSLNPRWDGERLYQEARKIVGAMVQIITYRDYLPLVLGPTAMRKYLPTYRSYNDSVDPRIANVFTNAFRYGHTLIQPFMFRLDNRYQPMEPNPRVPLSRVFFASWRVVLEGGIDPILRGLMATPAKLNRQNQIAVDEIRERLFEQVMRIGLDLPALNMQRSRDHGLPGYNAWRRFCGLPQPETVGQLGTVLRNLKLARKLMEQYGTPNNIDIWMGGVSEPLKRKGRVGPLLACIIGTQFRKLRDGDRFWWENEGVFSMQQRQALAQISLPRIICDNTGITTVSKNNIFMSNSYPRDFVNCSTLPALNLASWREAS
# T1 sequence (P05164 165-273 limits assumed): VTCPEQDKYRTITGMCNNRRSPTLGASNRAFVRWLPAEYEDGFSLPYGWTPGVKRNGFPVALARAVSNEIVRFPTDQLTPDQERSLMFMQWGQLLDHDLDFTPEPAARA
row,SMILES,MPO kinact/Ki
1,"NC(=O)Cn1c(-c2ccccc2-n2nccn2)cc(=O)[nH]c1=S [Example 99, 2-{4-oxo-2-thioxo-6-[2-(2H-1,2,3-triazol-2-yl)phenyl]-3,4-dihydropyrimidin-1(2H)-yl}acetamide]",2920 1/s per M
2,"COc1ccc(-c2cc(=O)[nH]c(=S)n2CC2CCCN2C(=O)CN)c(OC)c1 (centres unmarked) [Example 262, 6-(2,4-dimethoxyphenyl)-1-[(1-glycylpyrrolidin-2-yl)methyl]-2-thioxo-2,3-dihydropyrimidin-4(1H)-one hydrochloride]",1730 1/s per M
3,"COCCn1c(-c2ccncc2OC)cc(=O)[nH]c1=S [Example 296, 1-(2-methoxyethyl)-6-(3-methoxypyridin-4-yl)-2-thioxo-2,3-dihydropyrimidin-4(1H)-one]",1570 1/s per M
4,"COCCn1c(-c2cccc(Cl)c2)cc(=O)[nH]c1=S [Example 300, 6-(3-chlorophenyl)-1-(2-methoxyethyl)-2-thioxo-2,3-dihydropyrimidin-4(1H)-one]",2460 1/s per M
5,"CCOc1ccc(-c2cc(=O)[nH]c(=S)n2CCOC)cc1 [Example 311, 6-(4-ethoxyphenyl)-1-(2-methoxyethyl)-2-thioxo-2,3-dihydropyrimidin-4(1H)-one]",2080 1/s per M
6,"COc1cc(OC)c(-c2cc(=O)[nH]c(=S)n2CCO)cc1OC [Example 202, 1-(2-hydroxyethyl)-2-thioxo-6-(2,4,5-trimethoxyphenyl)-2,3-dihydropyrimidin-4(1H)-one]",8280 1/s per M
7,"COc1ccc(-c2cc(=O)[nH]c(=S)n2CCCCO)c(OC)c1 [Example 196, 6-(2,4-dimethoxyphenyl)-1-(4-hydroxybutyl)-2-thioxo-2,3-dihydropyrimidin-4(1H)-one]",5640 1/s per M
8,"COCCn1c(-c2ccc(OC)nc2OC)cc(=O)[nH]c1=S [Example 332, 6-(2,6-dimethoxypyridin-3-yl)-1-(2-methoxyethyl)-2-thioxo-2,3-dihydropyrimidin-4(1H)-one]",3270 1/s per M
9,"COc1cc(OC)c(-c2cc(=O)[nH]c(=S)n2CCCN)cc1OC [Example 125, 1-(3-aminopropyl)-2-thioxo-6-(2,4,5-trimethoxyphenyl)-2,3-dihydropyrimidin-4(1H)-one hydrochloride]",10600 1/s per M
10,"COc1nc(C)ccc1-c1cc(=O)[nH]c(=S)n1CCO [Example 21, 1-(2-hydroxyethyl)-6-(2-methoxy-6-methylpyridin-3-yl)-2-thioxo-2,3-dihydropyrimidin-4(1H)-one]",4530 1/s per M
11,"COc1ccc(Cl)cc1-c1cc(=O)[nH]c(=S)n1CCCNC(C)=O [Example 134, N-{3-[6-(5-chloro-2-methoxyphenyl)-4-oxo-2-thioxo-3,4-dihydropyrimidin-1(2H)-yl]propyl} acetamide]",5350 1/s per M
12,"COCCn1c(-c2c(F)cccc2OC)cc(=O)[nH]c1=S [Example 60, 6-(2-fluoro-6-methoxyphenyl)-1-(2-methoxyethyl)-2-thioxo-2,3-dihydropyrimidin-4(1H)-one]",3470 1/s per M
13,"COCCn1c(-c2ccc(OC)c(OC)c2)cc(=O)[nH]c1=S [Example 331, 6-(3,4-dimethoxyphenyl)-1-(2-methoxyethyl)-2-thioxo-2,3-dihydropyrimidin-4(1H)-one]",6330 1/s per M
14,"COc1ccc(-c2cc(=O)[nH]c(=S)n2CC2CCCN2)c(OC)c1 (centres unmarked) [Example 211, 6-(2,4-dimethoxyphenyl)-1-(pyrrolidin-2-ylmethyl)-2-thioxo-2,3-dihydropyrimidin-4(1H)-one hydrochloride]",6090 1/s per M
15,"COc1ccc(-c2cc(=O)[nH]c(=S)n2CC(C)CO)c(OC)c1 (centres unmarked) [Example 195, 6-(2,4-dimethoxyphenyl)-1-(3-hydroxy-2-methylpropyl)-2-thioxo-2,3-dihydropyrimidin-4(1H)-one]",5350 1/s per M
16,"COc1ccc(-c2cc(=O)[nH]c(=S)n2CCO)c(OC)n1 [Example 4, 6-(2,6-Dimethoxypyridin-3-yl)-1-(2-hydroxyethyl)-2-thioxo-2,3-dihydropyrimidin-4(1H)-one]",8790 1/s per M
17,"COCCn1c(-c2ccccc2CO)cc(=O)[nH]c1=S [Example 292, 6-[2-(hydroxymethyl)phenyl]-1-(2-methoxyethyl)-2-thioxo-2,3-dihydropyrimidin-4(1H)-one]",1070 1/s per M
18,"COc1ccc(F)cc1-c1cc(=O)[nH]c(=S)n1CC(N)=O [Example 59, 2-[6-(5-fluoro-2-methoxyphenyl)-4-oxo-2-thioxo-3,4-dihydropyrimidin-1(2H)-yl]acetamide]",8480 1/s per M
19,"COc1ccc(-c2cc(=O)[nH]c(=S)n2CC(=O)OC(C)(C)C)c(OC)c1 [Example 137, tert-butyl[6-(2,4-dimethoxyphenyl)-4-oxo-2-thioxo-3,4-dihydropyrimidin-1(2H)-yl]acetate]",701 1/s per M

# Same assay, conditions: Table 1A, 2 μM H2O2, pH 7.4
row,SMILES,MPO kinact/Ki
1,"COc1ccc(OC)c(-c2cc(=O)[nH]c(=S)n2CC(=O)NCCN)c1 [Example 370, N-(2-aminoethyl)-2-[6-(2,5-dimethoxyphenyl)-4-oxo-2-thioxo-3,4-dihydropyrimidin-1(2H)-yl]acetamide]",9060 1/s per M
2,"COc1ccc(-c2cc(=O)[nH]c(=S)n2CC(=O)NCC(C)(C)N)c(OC)c1 [Example 429, N-(2-amino-2-methylpropyl)-2-[6-(2,4-dimethoxyphenyl)-4-oxo-2-thioxo-3,4-dihydropyrimidin-1(2H)-yl]acetamide]",6620 1/s per M
3,"N=C(N)NCCn1c(-c2cc(Cl)ccc2OCCO)cc(=O)[nH]c1=S [Example 448, 1-(2-{6-[5-chloro-2-(2-hydroxyethoxy)phenyl]-4-oxo-2-thioxo-3,4-dihydropyrimidin-1(2H)-yl}ethyl)guanidine]",6490 1/s per M
4,"COc1ccc(-c2cc(=O)[nH]c(=S)n2CC(=O)N[C@H](C)[C@@H](C)N)c(OC)c1 [Example 433, N-[(2R,3R)-3-aminobutan-2-yl]-2-[6-(2,4-dimethoxyphenyl)-4-oxo-2-thioxo-3,4-dihydropyrimidin-1(2H)-yl]acetamide]",3490 1/s per M
5,"O=c1cc(-c2ccc(F)cc2OCCO)n(CCO)c(=S)[nH]1 [Example 413, 6-[4-fluoro-2-(2-hydroxyethoxy)phenyl]-1-(2-hydroxyethyl)-2-thioxo-2,3-dihydropyrimidin-4(1H)-one]",6560 1/s per M
6,"NCCn1c(-c2cc3ccccc3s2)cc(=O)[nH]c1=S [Example 354, 1-(2-aminoethyl)-6-(1-benzothiophen-2-yl)-2-thioxo-2,3-dihydropyrimidin-4(1H)-one]",1830 1/s per M
7,"CC(=O)OCCOc1ccc(F)cc1-c1cc(=O)[nH]c(=S)n1CC(N)=O [Example 421, 2-{2-[3-(2-amino-2-oxoethyl)-6-oxo-2-thioxo-1,2,3,6-tetrahydropyrimidin-4-yl]-4-fluorophenoxy}ethyl acetate]",4950 1/s per M

# From US9399626B2, “2-thiopyrimidinones” (Pfizer Inc., priority 2011, dated 2016)
